Where two headings read alike, the source gives them in different places. Marks after values point to notes of the source that are not given here.

What all share (assay type): in vivo
In test [1] the test system is Phakopsora pachyrhizi (the causal agent of Asian soybean rust). Description: Test A: preventive spray on soybean seedlings, Asian soybean rust, visual disease rating. To be noted: for pest or weed control at 250 µg/mL: test suspension 250 ppm; for pest or weed control at 10 µg/mL: read-out: Test A disease control rating. In outline:
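Preventive test: soybean seedlings received a run-off spray of compound suspended at the set ppm in 50/50 acetone/water plus 250 ppm PEG400, and one day later a P. pachyrhizi spore inoculum. Visual scoring (0 none to 100 full disease control) followed 24 h saturated incubation and 8 days' growth chamber, both at 22° C.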

For test [2], the system named is Zymoseptoria tritici (the causal agent of wheat leaf blotch). Description: Test B: preventive spray on wheat seedlings, wheat leaf blotch, visual disease rating. The note with it: for pest or weed control at 100 µg/mL: read-out: Test B disease control rating. The source says: General protocol for preparing test suspensions for Tests A-D: the test compounds were first dissolved in acetone in an amount equal to 3% of the final volume and then suspended at the desired concentration (in ppm) in acetone and purified water (50/50 mix by volume) containing 250 ppm of the surfactant PEG400 (polyhydric alcohol esters). The resulting test suspensions were then used in Tests A-D.
The test suspension was sprayed to the point of run-off on wheat seedlings. The following day the seedlings were inoculated with a spore suspension of Zymoseptoria tritici (the causal agent of wheat leaf blotch) and incubated in a saturated atmosphere at 24° C. for 48 h, and then moved to a growth chamber at 20° C. for 17 days, after which time visual disease ratings were made.
The test results for Tests A-C presented in Table A below for compounds of Formula 1 illustrate the fungicidal activity of component (a) contributing to the plant disease control utility of compositions comprising component (a) in combination with component (b) according to the present invention. In the Table, a rating of 100 indicates 100% disease control and a rating of 0 indicates no disease control (relative to the controls). A dash (-) indicates the compound was not tested. The test suspensions were sprayed at the concentration listed in the column “Rate in ppm”, unless otherwise indicated. An asterisk “*” next to the rating indicates a 250 ppm test suspension was used, a double asterisk “**” next to the rating indicates a 100 ppm test suspension was used, and a triple asterisk “***” next to the rating indicates a 50 ppm test suspension was used.

Test [3] concerns Puccinia recondita f. sp. tritici (the causal agent of wheat leaf rust). Description: Test C: preventive spray on wheat seedlings, wheat leaf rust, visual disease rating. To be noted: for pest or weed control at 10 µg/mL: read-out: Test C disease control rating. In outline: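 Wheat seedlings sprayed to run-off with compound in acetone/water (50/50) with 250 ppm PEG400, then inoculated with spores the following day. After 24 h saturated humidity at 20° C. and 6 days in growth chamber at 20° C., disease rated visually as % control relative to untreated controls.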

Setting [4] is: Phakopsora pachyrhizi, 216 h, soybean seedlings.
Where [5] appears, read: Zymoseptoria tritici, 456 h, test suspension 250 ppm, wheat seedlings.
The mark [6] stands for this setting: Puccinia recondita, 168 h, test suspension 250 ppm, wheat seedlings.
The mark [7] stands for this setting: Phakopsora pachyrhizi, 216 h, test suspension 10 ppm, soybean seedlings, 100 = 100% disease control, 0 = no control.
Where [8] appears, read: Zymoseptoria tritici, 456 h, test suspension 100 ppm (** next to rating), wheat seedlings.
[9] abbreviates: Puccinia recondita, 168 h, test suspension 10 ppm, wheat seedlings.
The mark [10] stands for this setting: test suspension 250 ppm, wheat seedlings.
[11] abbreviates: test suspension 10 ppm, soybean seedlings, 100 = 100% disease control, 0 = no control.
Setting [12] is: test suspension 10 ppm, wheat seedlings.
[13] abbreviates: Phakopsora pachyrhizi, 216 h, 10 ppm test suspension, soybean seedlings, 100 = 100% disease control, 0 = no control.
The mark [14] stands for this setting: Zymoseptoria tritici, 456 h, 250 ppm test suspension, wheat seedlings, 100 = 100% disease control.
Where [15] appears, read: Puccinia recondita, 168 h, 10 ppm test suspension, wheat seedlings, 100 = 100% disease control, 0 = no control.
Where [16] appears, read: 10 ppm test suspension, soybean seedlings, 100 = 100% disease control, 0 = no control.
The mark [17] stands for this setting: 250 ppm test suspension, wheat seedlings, 100 = 100% disease control.
Where [18] appears, read: 10 ppm test suspension, wheat seedlings, 100 = 100% disease control, 0 = no control.

As for `N#CC(Nc1ccccc1)c1ccc(-c2noc(C(F)(F)F)n2)cc1` (stereo not drawn) [Compound 13, α-(phenylamino)-4-[5-(trifluoromethyl)-1,2,4-oxadiazol-3-yl]benzeneacetonitrile], the figures for the pest or weed control at 250 µg/mL in test [1] (setting [4]), in test [2] (setting [5]) and in test [3] (setting [6]) were 100%, 85% and 100%, respectively.
Consider `COC(=O)c1cnn(Cc2ccc(-c3noc(C(F)(F)F)n3)cc2)c1` [Compound 21, methyl 1-[[4-[5-(trifluoromethyl)-1,2,4-oxadiazol-3-yl]phenyl]methyl]-1H-pyrazole-4-carboxylate], for which the pest or weed control at 10 µg/mL in test [1] (Phakopsora pachyrhizi, 216 h) was found to be 100%; in test [3] (Puccinia recondita, 168 h) it was 100%. Also, the pest or weed control at 100 µg/mL in test [2] (Zymoseptoria tritici, 456 h) is 97%.
Regarding `N#CCOC(=O)c1cnn(Cc2ccc(-c3noc(C(F)(F)F)n3)cc2)c1` [Compound 57, cyanomethyl 1-[[4-[5-(trifluoromethyl)-1,2,4-oxadiazol-3-yl]phenyl]methyl]-1H-pyrazole-4-carboxylate], the pest or weed control at 10 µg/mL in test [1] (setting [7]) and in test [3] (setting [9]) was 100% throughout. For the same molecule, the pest or weed control at 100 µg/mL in test [2] (setting [8]) was 99%.
Take `FC(F)(F)c1nc(-c2ccc(Cn3cc(Br)cn3)s2)no1` [Compound 71, 3-[5-[(4-bromo-1H-pyrazol-1-yl)methyl]-2-thienyl]-5-(trifluoromethyl)-1,2,4-oxadiazole]: the values for the pest or weed control at 250 µg/mL in test [1] (setting [4]), in test [2] (setting [5]) and in test [3] (setting [6]) were 100%, 36% and 100%, respectively.
In the case of `CCOC(=O)c1cnn(Cc2ccc(-c3noc(C(F)(F)F)n3)cc2)c1` [Compound 83, ethyl 1-[[4-[5-(trifluoromethyl)-1,2,4-oxadiazol-3-yl]phenyl]methyl]-1H-pyrazole-4-carboxylate], the pest or weed control at 250 µg/mL in test [1] (setting [4]) is 100%; in test [2] (setting [5]), 79%; in test [3] (setting [6]) it was 100%.
For the molecule `FC(F)(F)c1nc(-c2ccc(Cn3ccc(-c4ccccc4)n3)cc2)no1` [Compound 85], the “Test A disease control rating” value in test [1] (test suspension 50 ppm, soybean seedlings) is on record as 100*** %. Moreover, the “Test B disease control rating” value in test [2] (setting [10]) came out at 9%. Further, the “Test C disease control rating” value in test [3] (setting [10]) is 100%.
As for `O=C1c2ccccc2C(=O)N1Cc1ccc(-c2noc(C(F)(F)F)n2)cc1` [Compound 90, 2-[[4-[5-(trifluoromethyl)-1,2,4-oxadiazol-3-yl]phenyl]methyl]-1H-isoindole-1,3(2H)-dione], the pest or weed control at 250 µg/mL in test [1] (setting [4]) is 100%; in test [2] (setting [5]) it was 33%; in test [3] (setting [6]), 99%.
For `N#Cc1cnn(Cc2ccc(-c3noc(C(F)(F)F)n3)cc2)c1` [Compound 95, 1-[[4-[5-(trifluoromethyl)-1,2,4-oxadiazol-3-yl]phenyl]methyl]-1H-pyrazole-4-carbonitrile] the same measures were 100%, 87% and 100%.
As for `O=c1cnc2ccccc2n1Cc1ccc(-c2noc(C(F)(F)F)n2)cc1` [Compound 158, 1-[[4-[5-(trifluoromethyl)-1,2,4-oxadiazol-3-yl]phenyl]methyl]-2(1H)-quinoxalinone], the pest or weed control at 270 µg/mL in test [1] (Phakopsora pachyrhizi, 216 h, test suspension 270 ppm, soybean seedlings) turned out to be 100%; in test [2] (Zymoseptoria tritici, 456 h, test suspension 270 ppm, wheat seedlings) it was 90%; in test [3] (Puccinia recondita, 168 h, test suspension 270 ppm, wheat seedlings), 100%.
As for `Cn1c(=O)n(Cc2ccc(-c3noc(C(F)(F)F)n3)cc2)c2ccccc21` [Compound 159, 1,3-dihydro-1-methyl-3-[[4-[5-(trifluoromethyl)-1,2,4-oxadiazol-3-yl]phenyl]methyl]-2H-benzimidazol-2-one], the pest or weed control at 260 µg/mL came out at 100% in test [1] (Phakopsora pachyrhizi, 216 h, test suspension 260 ppm, soybean seedlings); 87% in test [2] (Zymoseptoria tritici, 456 h, test suspension 260 ppm, wheat seedlings); 100% in test [3] (Puccinia recondita, 168 h, test suspension 260 ppm, wheat seedlings).
For `CCOC(=O)c1cnn(C(C)c2ccc(-c3noc(C(F)(F)F)n3)s2)c1` (stereo not drawn) [Compound 192], the “Test A disease control rating” value in test [1] (setting [11]) was found to be 100%. In test [2] (setting [10]), the “Test B disease control rating” value is on record as 99* %. Besides, in test [3] (setting [12]), the “Test C disease control rating” value was 100%.
As to `CCCOC(=O)c1cnn(Cc2ccc(-c3noc(C(F)(F)F)n3)s2)c1` [Compound 198, propyl 1-[[5-[5-(trifluoromethyl)-1,2,4-oxadiazol-3-yl]-2-thienyl]methyl]-1H-pyrazole-4-carboxylate], the pest or weed control at 10 µg/mL in test [1] (setting [7]) amounted to 100%; in test [3] (setting [9]), 99%. Moreover, the pest or weed control at 100 µg/mL in test [2] (setting [8]) is 94%.
For the molecule `O=C(c1coc(Cc2ccc(-c3noc(C(F)(F)F)n3)cc2)n1)N1CCOCC1` [Compound 263], in test [1] (setting [11]), the “Test A disease control rating” value is 100%. Besides, in test [2] (setting [10]), the “Test B disease control rating” value is recorded as 95* %. The “Test C disease control rating” value in test [3] (setting [12]) was determined as 94%.
Regarding `COCCNC(=O)c1ccc(Cc2ccc(-c3noc(C(F)(F)F)n3)cc2)cc1` [Compound 282], the “Test A disease control rating” value in test [1] (setting [11]) amounted to 100%. In addition, in test [2] (setting [10]), the “Test B disease control rating” value is 94* %. Besides, the “Test C disease control rating” value in test [3] (setting [12]) was determined as 97%.
On to `FC(F)(F)c1nc(-c2ccc(OCn3cncn3)cc2)no1` [Compound 337], for which the “Test A disease control rating” value in test [1] (setting [11]) is 99%. Also, in test [2] (setting [10]), the “Test B disease control rating” value is 78* %. For the same molecule, in test [3] (setting [12]), the “Test C disease control rating” value was 82%.
For `FC(F)(F)c1nc(-c2ccc(OCc3cccnc3)cc2)no1` [Compound 353] the same measures were 0%, 73* % and 0%.
Consider `O=C(NCCF)c1coc(Cc2ccc(-c3noc(C(F)(F)F)n3)cc2)n1` [Compound 400, N-(2-fluoroethyl)-2-[[4-[5-(trifluoromethyl)-1,2,4-oxadiazol-3-yl]phenyl]methyl]-4-oxazolecarboxamide], for which the pest or weed control at 10 ppm in test [1] (setting [13]) and in test [3] (setting [15]) was 100% in each case. Moreover, the pest or weed control at 250 ppm in test [2] (setting [14]) was determined as 99%.
As to `O=C(NCCOC(F)(F)F)c1coc(Cc2ccc(-c3noc(C(F)(F)F)n3)cc2)n1` [Compound 401, N-[2-(trifluoromethoxy)ethyl]-2-[[4-[5-(trifluoromethyl)-1,2,4-oxadiazol-3-yl]phenyl]methyl]-4-oxazolecarboxamide], the pest or weed control at 10 ppm in test [1] (setting [13]) is 100%; in test [3] (setting [15]), 99%. Further, the pest or weed control at 250 ppm in test [2] (setting [14]) is 77%.
As for `O=C(c1coc(Cc2ccc(-c3noc(C(F)(F)F)n3)cc2)n1)N1CCC(F)(F)C1` [Compound 402, (3,3-difluoro-1-pyrrolidinyl)[2-[[4-[5-(trifluoromethyl)-1,2,4-oxadiazol-3-yl]phenyl]methyl]-4-oxazolyl]methanone], the pest or weed control at 10 ppm worked out at 100% in test [1] (setting [13]) and 90% in test [3] (setting [15]). In addition, the pest or weed control at 250 ppm in test [2] (setting [14]) stood at 96%.
Regarding `COC(=O)c1coc(COc2ccc(-c3noc(C(F)(F)F)n3)cc2)n1` [Compound 403, methyl 2-[[4-[5-(trifluoromethyl)-1,2,4-oxadiazol-3-yl]¬phenoxy]¬methyl]oxazole-4-carboxylate], the “Test A disease control rating” value in test [1] (setting [16]) is 60%. For the same molecule, the “Test B disease control rating” value in test [2] (setting [17]) is recorded as 47* %. In test [3] (setting [18]), the “Test C disease control rating” value came to 0%.
Taken in the same sequence, the figures for `CCOC(=O)c1cccc(Cc2ccc(-c3noc(C(F)(F)F)n3)cc2)c1` [Compound 454] were 100%, 47* % and 0%.
Taken in the same sequence, the figures for `COC(=O)c1csc(Cc2ccc(-c3noc(C(F)(F)F)n3)cc2)c1` [Compound 455] were 100%, 66* % and 0%.

The record behind these values is patent publication US20240090503A1, “FUNGICIDAL OXADIAZOLES AND THEIR MIXTURES” (FMC CORPORATION, priority 2020, published 2024).
